This note sets out measurements from article PMC9134086, “Inhibition of Dipeptidyl Peptidase-4 by Flavonoids: Structure–Activity Relationship, Kinetics and Interaction Mechanism” (Frontiers in Nutrition, 2022).

In general, IC50 refers to the midpoint of a concentration-inhibition curve. In general, % Inhibition refers to the percentage by which the read-out fell short of the control. A word on the inhibition: it is the relative decrease from the control value, in per cent.

For one experiment, the target named is T1, DPP-4 (human recombinant) (Homo sapiens, UniProt P27487).
T1 construct: purchased Sigma Aldrich D3446
T1 sequence (P27487 whole entry): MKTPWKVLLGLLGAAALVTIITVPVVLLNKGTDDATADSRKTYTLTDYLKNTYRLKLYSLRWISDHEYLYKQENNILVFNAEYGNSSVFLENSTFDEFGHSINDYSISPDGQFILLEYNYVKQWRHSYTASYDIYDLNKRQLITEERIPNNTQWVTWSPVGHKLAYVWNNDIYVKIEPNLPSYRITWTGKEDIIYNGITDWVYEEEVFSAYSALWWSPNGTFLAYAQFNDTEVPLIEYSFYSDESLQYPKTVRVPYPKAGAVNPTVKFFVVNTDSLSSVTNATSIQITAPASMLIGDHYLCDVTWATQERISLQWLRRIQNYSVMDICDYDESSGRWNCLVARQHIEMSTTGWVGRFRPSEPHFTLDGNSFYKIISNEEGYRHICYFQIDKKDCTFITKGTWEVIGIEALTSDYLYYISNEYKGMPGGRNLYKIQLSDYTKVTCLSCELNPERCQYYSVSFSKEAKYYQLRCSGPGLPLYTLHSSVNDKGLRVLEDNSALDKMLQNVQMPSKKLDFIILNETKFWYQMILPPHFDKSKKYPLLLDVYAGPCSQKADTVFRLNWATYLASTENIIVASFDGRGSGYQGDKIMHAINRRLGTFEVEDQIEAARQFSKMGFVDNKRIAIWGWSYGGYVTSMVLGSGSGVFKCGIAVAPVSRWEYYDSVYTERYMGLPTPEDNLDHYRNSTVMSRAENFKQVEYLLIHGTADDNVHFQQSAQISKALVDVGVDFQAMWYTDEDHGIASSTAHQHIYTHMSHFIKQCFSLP
Briefly: Fluorescence quenching experiments (Stern-Volmer, binding constant, thermodynamic parameters).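 Also: intrinsic DPP-4 fluorescence emission scanned 290–500 nm, corrected for flavonoid background and inner-filter absorbance, compared without versus with flavonoid quencher.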 The note with it: 310 K.
In the case of `O=c1c(O)c(-c2cc(O)c(O)c(O)c2)oc2cc(O)cc(O)c12` [E19, Myricetin], the “ΔG (Gibbs free-energy change)” value is -5.946 kcal/mol.

In a further experiment the target is T1, DPP-4 (human recombinant). Briefly: In vitro assay for DPP-4 inhibitory activity (fluorescence, Gly-Pro-AMC).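 Also: fluorescence of released AMC (excitation 360 nm, emission 460 nm) followed kinetically over 30 min at 37 °C in Tris-HCl pH 8.0.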 Format: biochemical. The note with it: DPP-4 inhibition, fluorescence method.
Take `O=c1c(O)c(-c2cc(O)c(O)c(O)c2)oc2cc(O)cc(O)c12` [E19, Myricetin]: the IC50 was less than 200 µM.

Staying with this experiment, now noted: flavonoid 200 μM; mean ± SD, three independent experiments.
For the molecule `COc1ccc(CCC(=O)c2c(O)cc(O[C@@H]3O[C@H](CO)[C@@H](O)[C@H](O)[C@H]3O[C@@H]3O[C@@H](C)[C@H](O)[C@@H](O)[C@H]3O)cc2O)cc1O` [G2, Neosperidin dihydrochalcone], the “% Inhibition at 200μM” value came out at 17.15 ± 0.23%.
Same read-out and setting: under Myricitrin [E20] stands 39.8 ± 0.78%.

Staying with this experiment, now noted: flavonoid 200 μM; mean ± SD, three independent experiments; read-out: % Inhibition at 200μM.
Consider `O=c1c(OC2OC(CO)C(O)C(O)C2OC2OC(CO)C(O)C(O)C2O)c(-c2ccc(O)cc2)oc2cc(O)cc(O)c12` (centres unmarked) [E15, Kaempferol 3-O-sophoroside], for which the inhibition at 200 µM stood at 43.2 ± 1.48%.
The same measure, in the same setting: with `O=C(O)C1OC(Oc2cc(O)c3c(=O)cc(-c4ccc(O)c(O)c4)oc3c2)C(O)C(O)C1O` (centres unmarked) [A9, Luteolin 7-O-glucuronide] the figure was 35.65 ± 0.11%; with `COc1ccc(-c2coc3cc(O)ccc3c2=O)cc1O` [B2, Calycosin], 43 ± 2.41%; with `O=c1cc(-c2ccc(O)cc2)oc2cc(O)c([C@@H]3O[C@H](CO)[C@@H](O)[C@H](O)[C@H]3O)c(O)c12` [A7, Isovitexin], 42.4 ± 1.23%.
The same measure, in the same setting: under `COc1ccc(-c2oc3cc(O)cc(O)c3c(=O)c2O)cc1` [E9, Kaempferide] stands 15.7 ± 0.58%; under `CC1OC(Oc2cc(O)c3c(=O)c(O)c(-c4ccc(O)c(O)c4)oc3c2)C(O)C(O)C1O` (centres unmarked) [E25, Quercetin 7-O-rhamnoside], 48.96 ± 0.12%; under `O=c1c(O)c(-c2ccc(O)cc2)oc2cc(O)cc(O)c12` [E11, Kaempferol], 32.23 ± 0.19%.
On the same count and under the same terms, with `O=c1c(O[C@@H]2O[C@H](CO)[C@@H](O)[C@H](O)[C@H]2O)c(-c2ccc(O)c(O)c2)oc2cc(O)cc(O)c12` [E5, Isoquercitrin] the figure was 36.9 ± 1.13%.
In the case of `O=c1c(O[C@@H]2O[C@@H](CO)[C@H](O)[C@H]2O)c(-c2ccc(O)c(O)c2)oc2cc(O)cc(O)c12` [E1, Avicularin], the inhibition at 200 µM stood at 27.1 ± 0.42%.
As to `COc1cc(-c2oc3cc(O)cc(O)c3c(=O)c2OC2OC(CO)C(O)C(O)C2O)ccc1O` (centres unmarked) [E7, Isorhamnetin 3-O-glucoside], the inhibition at 200 µM came out at 38.6 ± 1.41%.
Same read-out and setting: under `O=c1c(-c2ccc(O)cc2)coc2cc(O)cc(O)c12` [B5, Genistein] stands 15.3 ± 0.21%; under `O=C(CCc1ccc(O)cc1)c1c(O)cc(O)cc1O[C@@H]1O[C@H](CO)[C@@H](O)[C@H](O)[C@H]1O` [G4, Phlorizin], less than 10%; under `COc1cc(O)c2c(=O)cc(-c3ccc(O)cc3)oc2c1` [B6, Genkwanin], 20.8 ± 1.92%.
The same measure, in the same setting: under `COc1ccc(-c2cc(=O)c3c(O)cc(O)cc3o2)cc1O` [A4, Diosmetin] stands 22.2 ± 1.22%.
On the same count and under the same terms, with `O=c1cc(-c2ccc(OC3OC(CO)C(O)C(O)C3O)cc2)oc2c(C3OC(CO)C(O)C(O)C3O)c(O)cc(O)c12` (centres unmarked) [A16, Vitexin 4'-O-glucoside] the figure was 45.9 ± 1.48%; with `COc1ccc(-c2coc3cc(O)cc(O)c3c2=O)cc1` [B1, Biochanin A], 14.3 ± 1.48%; with `COc1cc(O)c2c(=O)c(O)c(-c3ccc(O)c(O)c3)oc2c1` [E27, Rhamnetin], 22.2 ± 0.63%.
As for `COc1cc(-c2[o+]c3cc(O)cc(OC4OC(CO)C(O)C(O)C4O)c3cc2OC2OC(CO)C(O)C(O)C2O)cc(OC)c1O` (centres unmarked) [F4, Malvin], the inhibition at 200 µM was determined as 13.7 ± 2.07%.
The same measure, in the same setting: with `O=c1c(OC2OC(CO)C(O)C(O)C2O)c(-c2ccc(O)c(O)c2)oc2cc(OC3OC(COC4OC(CO)C(O)C(O)C4O)C(O)C(O)C3O)cc(O)c12` (centres unmarked) [E24, Quercetin 3-O-glu-7-O-gentiobioside] the figure was 33.9 ± 1.07%; with `O=c1c(OC2OC(CO)C(O)C(O)C2O)c(-c2ccc(O)cc2)oc2cc(O)cc(O)c12` (centres unmarked) [E13, Kaempferol 3-O-galactoside], 46.3 ± 1.57%; with `COc1ccc(-c2cc(=O)c3c(O)cc(O[C@@H]4O[C@H](CO[C@@H]5O[C@@H](C)[C@H](O)[C@@H](O)[C@H]5O)[C@@H](O)[C@H](O)[C@H]4O)cc3o2)cc1O` [A5, Diosmin], 16.4 ± 1.73%.
On the same count and under the same terms, with `C[C@@H]1O[C@@H](Oc2cc(O)c3c(=O)c(O[C@@H]4O[C@@H](C)[C@H](O)[C@@H](O)[C@H]4O)c(-c4ccc(O)cc4)oc3c2)[C@H](O)[C@H](O)[C@H]1O` [E10, Kaempferitrin] the figure was 19.3 ± 0.47%.
For `O=c1c(-c2ccc(O)cc2)coc2cc(O)ccc12` [B3, Daidzein], the inhibition at 200 µM is 19.2 ± 3.44%.
In the case of `O=c1cc(-c2ccc(O)c(O)c2)oc2cc(O)c([C@@H]3O[C@H](CO)[C@@H](O)[C@H](O)[C@H]3O)c(O)c12` [A6, Isoorientin], the inhibition at 200 µM came out at 42.63 ± 0.33%.
Still for that read-out and setting: with `COc1ccc([C@@H]2CC(=O)c3c(O)cc(O)cc3O2)cc1O` [C3, Hesperetin] the figure was less than 10%; with `O=c1c(O)c(-c2ccccc2)oc2cc(O)cc(O)c12` [E2, Galangin], 38.26 ± 0.36%.
Consider `Oc1cc(O)c2c(c1)O[C@H](c1ccc(O)c(O)c1)[C@H](O)C2` [D2, Epicatechin], for which the inhibition at 200 µM is less than 10%.
On the same count and under the same terms, with `O=C1c2c(O)cc(O)cc2O[C@H](c2ccc(O)cc2O)[C@H]1O` [C1, Dihydromorin] the figure was 30.9 ± 1.22%.
As to `Oc1ccc(-c2[o+]c3cc(O)cc(O)c3cc2O)cc1` [F5, Pelargonidin], the inhibition at 200 µM was less than 10%.
The same measure, in the same setting: with `COc1ccc(-c2cc(=O)c3c(OC)c(OC)c(OC)c(OC)c3o2)cc1` [A13, Tangeretin] the figure was 14.2 ± 1.06%; with `O=C1C[C@@H](c2ccc(O)cc2)Oc2cc(O)ccc21` [C5, Liquiritigenin], 17.1 ± 0.94%; with `O=C1c2c(O)cc(O)cc2O[C@H](c2cc(O)c(O)c(O)c2)[C@H]1O` [C2, Dihydromyricetin], 20.6 ± 0.36%.
Same read-out and setting: with `CC1OC(OCC2OC(Oc3c(-c4ccc(O)cc4)oc4cc(O)cc(O)c4c3=O)C(O)C(O)C2O)C(O)C(O)C1O` (centres unmarked) [E14, Kaempferol 3-O-rutinoside] the figure was 36.83 ± 0.01%.
Turning to `Oc1cc(O)c2c(c1)OC(c1ccc(O)c(O)c1)C(O)C2` (centres unmarked) [D1, Catechin], the inhibition at 200 µM was less than 10%.
The same measure, in the same setting: under `Oc1cc(O)c2cc(O)c(-c3ccc(O)c(O)c3)[o+]c2c1` [F1, Cyanidin] stands 18.8 ± 0.4%; under `C[C@@H]1O[C@@H](Oc2c(-c3ccc(O)c(O)c3)oc3cc(O)cc(O)c3c2=O)[C@H](O)[C@H](O)[C@H]1O` [E26, Quercitrin], 47.65 ± 0.36%.
On the same count and under the same terms, with `O=c1cc(-c2ccc(O)c(O)c2)oc2cc(O)cc(O)c12` [A8, Luteolin] the figure was 47.5 ± 0.89%; with `O=c1cc(-c2ccccc2)oc2cc(O)cc(O)c12` [A3, Chrysin], 26.1 ± 3.07%; with `O=c1c(O)c(-c2ccc(O)cc2O)oc2cc(O)cc(O)c12` [E18, Morin], 42.8 ± 0.91%.
Still for that read-out and setting: under `O=C(O[C@@H]1Cc2c(O)cc(O)cc2O[C@@H]1c1cc(O)c(O)c(O)c1)c1cc(O)c(O)c(O)c1` [D3, Epigallocatechin gallate] stands less than 10%; under `COc1cc(-c2oc3cc(O)cc(O)c3c(=O)c2OC2OC(CO)C(O)C(O)C2OC2OC(C)C(O)C(O)C2O)ccc1O` (centres unmarked) [E8, Isorhamnetin 3-O-neohesperidin], 40.6 ± 0.42%.
As to `COc1ccc(-c2coc3cc(O)ccc3c2=O)cc1` [B4, Formononetin], the inhibition at 200 µM is 17.6 ± 0.19%.
The same measure, in the same setting: with `O=c1cc(-c2ccc(O)c(O)c2)oc2cc(O[C@@H]3O[C@H](CO)[C@@H](O)[C@H](O)[C@H]3O)cc(O)c12` [A10, Luteoloside] the figure was 45.6 ± 0.62%; with `O=c1c(O)c(-c2ccc(OC3OC(CO)C(O)C(O)C3O)cc2)oc2cc(O)cc(O)c12` (centres unmarked) [E16, Kaempferol 4'-O-glucoside], 37.2 ± 0.64%.
On the same count and under the same terms, with `C[C@@H]1O[C@@H](OC[C@H]2O[C@@H](Oc3c(-c4ccc(O)c(O)c4)oc4cc(O)cc(O)c4c3=O)[C@H](O)[C@@H](O)[C@@H]2O)[C@H](O)[C@H](O)[C@H]1O` [E28, Rutin] the figure was 42.7 ± 1.28%.
As to `COc1c(-c2ccc(O)c(O)c2)oc2cc(O)cc(O)c2c1=O` [E22, 3-O-Methylquercetin], the inhibition at 200 µM came out at 45.6 ± 0.78%.

Still in this experiment, the particulars now being: read-out: % Inhibition at 200μM.
In the case of `O=c1c(O)c(-c2ccc(O)cc2)oc2cc(OC3OC(CO)C(O)C(O)C3O)cc(O)c12` (centres unmarked) [E17, Kaempferol 7-O-glucoside], the inhibition at 200 µM worked out at 48.8 ± 1.07%.
Still for that read-out and setting: under `O=c1cc(-c2ccc(O)cc2)oc2c([C@@H]3O[C@H](CO)[C@@H](O)[C@H](O)[C@H]3O)c(O)cc(O)c12` [A14, Vitexin] stands 27 ± 1.35%; under `O=c1cc(-c2ccc(O)c(O)c2)oc2c([C@@H]3O[C@H](CO)[C@@H](O)[C@H](O)[C@H]3O)c(O)cc(O)c12` [A12, Orientin], 38.6 ± 2.1%.
Still for that read-out and setting: under `COc1ccc(C2CC(=O)c3c(O)cc(OC4OC(COC5OC(C)C(O)C(O)C5O)C(O)C(O)C4O)cc3O2)cc1O` (centres unmarked) [C4, Hesperidin] stands less than 10%; under `COc1cc(-c2[o+]c3cc(O)cc(O)c3cc2OC2OC(CO)C(O)C(O)C2O)cc(OC)c1O` (centres unmarked) [F3, Malvidin 3-O-glucoside], 15 ± 2.42%.
On the same count and under the same terms, under `COc1cc(-c2oc3cc(O)cc(O)c3c(=O)c2O)ccc1O` [E6, Isorhamnetin] stands 29.4 ± 1.52%; under `C[C@@H]1O[C@@H](OC[C@H]2O[C@@H](Oc3cc(O)c4c(c3)O[C@H](c3ccc(O)cc3)CC4=O)[C@H](O)[C@@H](O)[C@@H]2O)[C@H](O)[C@H](O)[C@H]1O` [A11, Narirutin], 13.97 ± 0.13%; under `O=c1c(O)c(-c2ccc(O)cc2)oc2c(O)c(O)cc(O)c12` [E3, Herbacetin], 25.7 ± 1.82%.
Take `O=C(CCc1ccc(O)cc1)c1c(O)cc(O)cc1O` [G3, Phloretin]: the inhibition at 200 µM was 17.8 ± 1.21%.
